{"source": "patent US20080249154A1", "about": "“Preventive and/or Therapeutic Agent For Disease In Which Mitochondrial Benzodiazephine Receptor Participates” (ONO PHARMACEUTICAL CO., LTD., priority 2003, published 2008)", "target": "T1, MBR (mitochondrial benzodiazepine receptor) (Rattus norvegicus, UniProt P16257)", "T1 construct": "from tissue; host or cells: male Wistar rat whole brain with cerebellum removed, crude membrane pellet", "assay": "Receptor binding experiment: [3H]PK11195 competition binding, rat brain membrane preparation", "conditions": "[3H]PK11195 0.5 or 1 nmol/L, 1 hour at room temperature, calculated by Cheng and Prusoff formula from KD and IC50, read-out: Ki value (inhibition constant)", "method": "The affinity of the compounds in the present invention to MBR was determined using rat brain membrane preparation. In addition, the measurement in the present invention was improved the accuracy of measurement and the sensitivity of measurement for evaluating the compounds in the present invention as follows. After male Wister rats were decapitated to extirpate the whole brain and cerebellums were removed. They were homogenized in ice-cold 50 mmol/L Tris-HCL buffer solution (pH7.4), centrifuged and the obtained pellets were washed. The pellets resuspended and adjusted to about 1 mg/mL were used as rat brain membrane preparations for binding assay. The binding assay were experimented using [^3H]PK11195 as a MBR selective ligand. […]\nTo determine the amount of total binding in saturation binding experiment, membrane preparations, various concentrations of [^3H]PK11195, final concentration: 0.5 vol % dimethylsulfoxide (DMSO) and 50 mmol/L Tris-HCL buffer solution (pH7.4) were mixed (total volume 200 μL) and were incubated for 1 hour at room temperature. […] The filter was dried and then the radioactivity on the filter was measured by liquid scintillation counter. The data obtained by the binding experiments were Scatchard analyzed using analysis software, KELL (Ver.6, BIOSOFT) and the dissociation constant (KD value) was determined. […]"}
{"smiles": "O=C(CCc1ccccc1)Nc1c2c(nn1-c1ccc(Cl)cc1)CSC2", "note": "[Example 8(8), N-[2-(4-chlorophenyl)-2,6-dihydro-4H-thieno[3,4-c]pyrazol-3-yl]-3-phenylpropanamide]", "values": [{"measurement": "Ki", "value": 99, "unit": "nM"}]}
